Results: patent US20260374739A1, “SMALL MOLECULAR WEIGHT CHEMICAL COMPOUND TO ANTAGONIZE EPH-EPHRIN TETRAMERIZATION AND INHIBIT BIDIRECTIONAL SIGNALING” (THE BOARD OF REGENTS OF THE UNIVERSITY OF TEXAS SYSTEM, priority 2022, published 2026)
Like-named read-outs stand apart in the source and are kept apart here.

Experiments:
EphB1-EphrinB2 = molecular target: T1, EphB1-EphrinB2 (Rattus norvegicus, UniProt P09759); test: shortened association (80 sec) Octet, immobilized rat EphB1-Fc binding to 100 nM mEB2-His; parameters: species or system mouse EphrinB2; details: for Kd: 1:1 fit, read-out: KD of EphB1-EB2; for increase in rate of dissociation (Kdis) / lower affinity of EphB1-EB2 / tetramer accumulation slope: role: inhibitor
T1 construct: rat EphB1-Fc residues 18-538; mouse EB2-His residues 18-232; purchased R&D Systems (EphB1-Fc); Sino Biologicals (EB2-His)
T1 sequence (P09759 18-538): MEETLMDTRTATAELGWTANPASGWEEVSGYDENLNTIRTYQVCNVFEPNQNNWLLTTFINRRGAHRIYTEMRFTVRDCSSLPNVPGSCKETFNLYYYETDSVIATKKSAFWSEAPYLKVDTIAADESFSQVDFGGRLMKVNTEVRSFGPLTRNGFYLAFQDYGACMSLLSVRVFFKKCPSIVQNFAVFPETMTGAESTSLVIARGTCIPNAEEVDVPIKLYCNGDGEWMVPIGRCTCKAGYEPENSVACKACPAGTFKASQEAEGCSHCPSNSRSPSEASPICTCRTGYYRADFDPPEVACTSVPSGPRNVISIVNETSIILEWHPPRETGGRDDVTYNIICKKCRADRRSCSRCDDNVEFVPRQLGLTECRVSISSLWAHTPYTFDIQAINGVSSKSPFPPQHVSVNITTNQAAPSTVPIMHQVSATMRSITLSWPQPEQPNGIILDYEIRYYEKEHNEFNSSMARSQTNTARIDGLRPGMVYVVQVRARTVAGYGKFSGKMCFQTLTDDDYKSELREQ
Procedure: In the above disclosed Octet interaction studies using human proteins the association and dissociation times were doubled to 800 and 1,000 sec, respectively, resulting in a greater accumulation of the super-stable surmountable and extra-super-stable unsurmountable forms of the Eph-Ephrin tetramers. To better assess early binding activities in the absence of A20, biophysical studies were conducted in which the association times were shortened to 80, 40, 20, 15, 10, and 5 sec, followed by a standard 500 sec dissociation, and where biosensor immobilized rEphB1-Fc ectodomain was exposed to 100 nM soluble mEB2-His. Focusing first on the run with 80 sec association step and for illustrative purpose (FIG. 23), the biosensor response indicates the expected rapid formation of EphB1-EB2 dimers with extremely high 87° slope for the first 10-15 sec of the association, which then quickly bends again as expected this time to a −60° slope as tetramers begin to accumulate. […] The dissociation response then quickly bent to level off and plateau at a signal much higher than baseline to represent the species of stable EphB1-EB2 tetramers that remained complexed throughout the remaining dissociation step.
To assess how A20 chemicals alter early binding activities, 80 sec Octet runs were then conducted using 0, 10, and 100 μM concentrations of the A20 salt compound (FIG. 25A 25B). In the absence of A20, the association response of immobilized EphB1 binding to soluble EB2 is typical to that shown in FIG. 24 and indicates rapid early formation of dimers with very high 87° slope that quickly bends to the tetramerization accumulation slope of −60°, and then once in the dissociation step the slope abruptly reverses to show fast-off of the dimer species with a signal that then leveled off in this experiment at 67% of the maximum response and represents accumulation of the stable tetramers. In runs containing A20, even though there was no effect on the early and fast formation of dimers during the 80 sec association step, there was a clear and very strong dose-dependent reduction in accumulation of the tetramer.
This can be especially seen in the analysis of the kinetic data where the parameters were set to calculate information based off of a 1:1 interaction (FIG. 25C). […] This increased rate of dissociation reflects the near absence in formation of stable tetramers and provides a fairly accurate representation of the Kdis that is specifically attributed to the fast-off melting of dimers. Summarizing these biophysical studies, in the presence of A20 only the fast-on/fast-off dimers form and are visualized in the association step, quickly reaching a homeostasis level of dimers forming and melting in equilibrium (fast-on/fast-off), and not being able to associate into tetramers. Then, when placed into the dissociation step, all the existing dimers quickly melt off leaving behind the few tetramers that were able to form. […] Based on the results, it is concluded that A20 chemicals can be classified as specific/select inhibitors of Eph-Ephrin tetramerization.

[1] = molecular target: pre-formed EphB2-EphrinB2 tetramer (Mus musculus, UniProt P54763); test: Octet competition of pre-existing tetramers, mouse EphB2-EphrinB2; assay type: binding; details: 2, 10, 50 μM
pre-formed EphB2-EphrinB2 tetramer, sequence (P54763 19-543 limits assumed): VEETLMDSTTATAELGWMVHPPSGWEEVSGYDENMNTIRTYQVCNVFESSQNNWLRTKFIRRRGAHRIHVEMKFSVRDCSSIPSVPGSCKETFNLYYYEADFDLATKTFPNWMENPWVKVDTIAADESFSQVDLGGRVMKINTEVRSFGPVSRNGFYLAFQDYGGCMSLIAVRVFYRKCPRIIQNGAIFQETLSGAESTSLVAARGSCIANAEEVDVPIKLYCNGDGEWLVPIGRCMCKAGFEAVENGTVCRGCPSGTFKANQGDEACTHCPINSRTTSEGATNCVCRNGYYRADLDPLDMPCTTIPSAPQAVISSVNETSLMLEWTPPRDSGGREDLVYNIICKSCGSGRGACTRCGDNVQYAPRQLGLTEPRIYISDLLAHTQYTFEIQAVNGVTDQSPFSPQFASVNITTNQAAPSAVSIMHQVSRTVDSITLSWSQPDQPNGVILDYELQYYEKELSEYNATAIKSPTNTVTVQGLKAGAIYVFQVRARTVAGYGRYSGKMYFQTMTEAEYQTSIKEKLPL
Procedure: Biophysical studies were conducted to explore if A20 is able to disrupt pre-existing stable tetramers, focusing on interactions of immobilized human EphrinB2 binding to soluble human EphB1 and EphB2, and immobilized mouse EphB2 binding to mouse EphrinB2 (FIGS. 29A-29C). In these experiments, sensor-chip immobilized proteins were first exposed to 50 nM of their soluble target protein for an 800 sec association step and 1,000 sec dissociation step to generate pre-formed stable tetramers, which were then subjected to a 1,000 sec competition step that included either 0, 2, 10, or 50 μM concentrations of A20 salt compound. […] The ability of A20 to disrupt pre-existing tetramers was most pronounced for human EB2-EphB2 and cognate murine EphB2-EB2 experiments and indicated a gradual ongoing dose-dependent decline in tetramers throughout the 1,000 sec competition step (and beyond if allowed) and irrespective of whether the human EphrinB2 or murine EphB2 was the immobilized protein.

Oc1c(Br)cc(CN2CCOCC2)c2cccnc12 [Compound 5, 7-bromo-5-(morpholinomethyl)quinolin-8-ol]
Kd (EphB1-EphrinB2; in presence of 10 μM A20): 10.5 nM
Kd (EphB1-EphrinB2; in presence of 100 μM A20): 46.2 nM
increase in rate of dissociation (Kdis) (EphB1-EphrinB2; 10 μM A20): 90 fold
lower affinity of EphB1-EB2 (EphB1-EphrinB2; 10 μM A20): 76 fold
tetramer accumulation slope (EphB1-EphrinB2; 10 μM A20, 60° without): 16 °
increase in rate of dissociation (Kdis) (EphB1-EphrinB2; 100 μM A20): 275 fold
lower affinity of EphB1-EB2 (EphB1-EphrinB2; 100 μM A20): 337 fold
tetramer accumulation slope (EphB1-EphrinB2; 100 μM A20): flat line with no slope
competition of pre-formed tetramers [1]: able to compete away in a dose-dependent manner a significant amount of the stable pre-formed tetramer complexes
